# Results reported in patent US8642801B2 (BHI Limited Partnership, priority 2003, dated 2014).
# Counter-ions that a name gives are not always drawn.
# Legend:
# [1] = molecular target: T1, IAPP (Homo sapiens, UniProt P10997); experiment: MS (electrospray mass spectrometry) binding assay for IAPP; details: Table 3C; 20 μM Aβ peptide, 100 μM compound (so in the source)
# T1 construct: which is a 37 amino acid peptide, derived from a larger precursor peptide, called pro-IAPP
# T1 sequence (P10997 34-70 limits assumed): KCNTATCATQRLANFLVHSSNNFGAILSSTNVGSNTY
# Text: (§1) The ability of a therapeutic compound of the invention to inhibit an interaction between an amyloidogenic protein and a glycoprotein or proteoglycan constituent of a basement membrane can be assessed by an in vitro binding assay, such as that described in U.S. Pat. No. 5,164,295, the contents of which are hereby incorporated by reference. Alternatively, the ability of a compound to bind to an amyloidogenic protein or to inhibit the binding of a basement membrane constituent (e.g., HSPG) to an amyloidogenic protein (e.g., Aβ) can be measured using a mass spectrometry assay where soluble protein, e.g., Aβ, IAPP, β2M is incubated with the compound. A compound which binds to, e.g., Aβ, will induce a change in the mass spectrum of the protein. Exemplary protocols for a mass spectrometry assay employing Aβ and IAPP can be found in the Examples, the results of which are provided in Table 3. The protocol can readily be modified to adjust the sensitivity of the data, e.g., by adjusting the amount of protein and/or compound employed. Thus, e.g., binding might be detected for test compounds noted as not having detectable binding employing less sensitive test protocols.
# (§2) The test compounds were synthesized and screened by mass spectrometry (“MS”) assays, except for selected compounds which were purchased from a commercial source. The MS assay gives data on the ability of compounds to bind to proteins, in this example, to β-amyloid and IAPP.
# (§3) In the MS assay for Aβ40, samples were prepared as aqueous solutions (adding 20% ethanol if necessary to solubilize in water), 200 μM of a test compound and 20 μM of solubilized Aβ40, or 400 μM of a test compound and 40 μM of solubilized Aβ40. The pH value of each sample was adjusted to 7.4 (±0.2) by addition of 0.1% aqueous sodium hydroxide. The solutions were then analyzed by electrospray ionization mass spectrometry using a Waters ZQ 4000 mass spectrometer. Samples were introduced by direct infusion at a flow-rate of 25 μL/min within 2 hr. after sample preparation. The source temperature was kept at 70° C. and the cone voltage was 20 V for all the analysis. Data were processed using Masslynx 3.5 software. The MS assay gives data on the ability of compounds to bind to soluble Aβ, whereas the ThT, EM and CD assays give data on inhibition of fibrillogenesis. In Table 3, a blank box means that a value was not determined for that compound in that assay.
# The key below describes the codes used in Table 3A to quantify the binding based on the intensity of the absorption.
# [2] = molecular target: T2, Aβ1-40 (Homo sapiens, UniProt P05067); experiment: MS (electrospray mass spectrometry) binding assay for Aβ40
# T2 construct: most is normally secreted as a 40 (“Aβ1-40”) or 42 (“Aβ1-42”) amino acid peptide
# T2 sequence (P05067 672-711 limits assumed): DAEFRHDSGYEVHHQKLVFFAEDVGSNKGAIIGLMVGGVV
# Text: as §1, §2
# as §3, with “The” for “In the MS assay for Aβ40, samples were prepared as aqueous solutions (adding 20% ethanol if necessary to solubilize in water), 200 μM of a test compound and 20 μM of solubilized Aβ40, or 400 μM of a test compound and 40 μM of solubilized Aβ40. The”
# [3] = molecular target: T1, IAPP; experiment: MS (electrospray mass spectrometry) binding assay for IAPP
# [4] = Table 3C, 20 μM Aβ peptide, 100 μM compound
# [5] = Table 3B, 30 μM Aβ peptide, 150 μM compound
# [6] = Table 3D, 40 μM Aβ peptide, 400 μM compound (so in the source)
# [7] = Table 3D, 40 μM Aβ peptide, 400 μM compound
# [8] = Table 3B, 30 μM Aβ peptide, 150 μM compound (so in the source)
smiles,measurement,setting,value
CCCC(CO)NCC(O)CS(=O)(=O)O (stereo not shown),MS binding IAPP,[1],++ (40-74% binding=(++))
"CCCC(CO)NCCC(C)S(=O)(=O)O (racemic) [JL, 4-[(dl)-1-hydroxy-2-pentyl]amino-2-butane sulfonic acid]",MS binding IAPP,[1],++ (40-74% binding=(++))
same,MS binding Aβ1-40,[2]; [4],++ (40-74% binding=(++))
"CCCC(CO)NCCCCS(=O)(=O)O (racemic) [LL, 4-[(dl)-1-hydroxy-2-pentyl]amino-1-butanesulfonic acid]",MS binding IAPP,[1],++ (40-74% binding=(++))
CCCCCCNC(=O)NCCCS(=O)(=O)[O-].[Na+] [AI],MS binding Aβ1-40,[2]; [5],+++ (60-100% binding=(+++))
COc1ccc(NCCCS(=O)(=O)O)cc1 [HL],MS binding IAPP,[3]; [6],+ (20-39% binding=(+))
same,MS binding Aβ1-40,[2]; [7],++ (40-74% binding=(++))
Nc1ccc(NCCCS(=O)(=O)O)cc1 [HM],MS binding IAPP,[3]; [6],− (<20%=(−))
same,MS binding Aβ1-40,[2]; [7],+ (20-39% binding=(+))
O=S(=O)(O)CCCNC1CN2CCC1CC2 (stereo not shown) [HQ],MS binding Aβ1-40,[2]; [7],+ (20-39% binding=(+))
O=S(=O)(O)CCCn1ccnc1 [HR],MS binding IAPP,[3]; [6],− (<20%=(−))
same,MS binding Aβ1-40,[2]; [7],++ (40-74% binding=(++))
O=S(=O)(O)CCCNc1ccc(F)cc1 [HT],MS binding IAPP,[3]; [6],+ (20-39% binding=(+))
same,MS binding Aβ1-40,[2]; [7],++ (40-74% binding=(++))
O=S(=O)(O)CCCNc1ccccc1O [HU],MS binding IAPP,[3]; [6],+ (20-39% binding=(+))
same,MS binding Aβ1-40,[2]; [7],+++ (75-100% binding=(+++))
O=S(=O)(O)CCCn1cccc1 [HV],MS binding IAPP,[3]; [6],+ (20-39% binding=(+))
same,MS binding Aβ1-40,[2]; [7],++ (40-74% binding=(++))
CC(C)(C)OC(=O)NCCCS(=O)(=O)O [IA],MS binding IAPP,[3]; [6],+ (20-39% binding=(+))
same,MS binding Aβ1-40,[2]; [7],+++ (75-100% binding=(+++))
O=S(=O)(O)CCCN1CCC=C(c2ccccc2)C1 [IG],MS binding IAPP,[3]; [6],++ (40-74% binding=(++))
same,MS binding Aβ1-40,[2]; [7],+++ (75-100% binding=(+++))
COc1ccccc1CNCCCS(=O)(=O)O [IW],MS binding IAPP,[1],+++ (75-100% binding=(+++))
same,MS binding Aβ1-40,[2]; [4],++ (40-74% binding=(++))
O=S(=O)(O)CCCNCc1ccccc1OC(F)(F)F [IX],MS binding IAPP,[1],+++ (75-100% binding=(+++))
same,MS binding Aβ1-40,[2]; [4],++ (40-74% binding=(++))
C[C@@H](NCCCS(=O)(=O)O)c1ccccc1 [IY],MS binding IAPP,[3]; [8],+++ (60-100% binding=(+++))
same,MS binding Aβ1-40,[2]; [5],++ (40-59% binding=(++))
C[C@H]([C@@H](O)c1ccccc1)N(C)CCCS(=O)(=O)O [IZ],MS binding IAPP,[1],+++ (75-100% binding=(+++))
same,MS binding Aβ1-40,[2]; [4],− (<20%=(−))
C[C@H](NCCCS(=O)(=O)O)c1ccccc1 [JA],MS binding IAPP,[1],++ (40-74% binding=(++))
same,MS binding Aβ1-40,[2]; [4],+ (20-39% binding=(+))
COc1ccc(OC)c(CNCCCS(=O)(=O)O)c1 [JB],MS binding IAPP,[1],+ (20-39% binding=(+))
same,MS binding Aβ1-40,[2]; [4],+ (20-39% binding=(+))
O=S(=O)(O)CCCNC(Cc1ccccc1)c1ccccc1 (stereo not shown) [JC],MS binding IAPP,[1],+ (20-39% binding=(+))
CCOc1ccccc1CNCCCS(=O)(=O)O [JD],MS binding IAPP,[1],++ (40-74% binding=(++))
same,MS binding Aβ1-40,[2]; [4],+ (20-39% binding=(+))
"CCCCCCCCNCCC(C)S(=O)(=O)O (stereo not shown) [JG, 4-(octylamino)-2-butanesulfonic acid]",MS binding IAPP,[1],+++ (75-100% binding=(+++))
"CC(CCNC12CC3CC(CC(C3)C1)C2)S(=O)(=O)O (stereo not shown) [JH, 4-(adamantyl)amino-2-butanesulfonic acid]",MS binding IAPP,[3]; [8],+++ (60-100% binding=(+++))
same,MS binding Aβ1-40,[2]; [5],++ (40-59% binding=(++))
"CC(CCNC1C2CC3CC(C2)CC1C3)S(=O)(=O)O (stereo not shown) [JI, 4-(2-adamantyl)amino-2-butanesulfonic acid]",MS binding IAPP,[3]; [8],+++ (60-100% binding=(+++))
same,MS binding Aβ1-40,[2]; [5],+++ (60-100% binding=(+++))
"CC(CCN)S(=O)(=O)O (stereo not shown) [JR, 4-amino-2-butanesulfonic acid]",MS binding IAPP,[3]; [8],+++ (60-100% binding=(+++))
same,MS binding Aβ1-40,[2]; [5],++ (40-59% binding=(++))
"CC(CCN1CCCCC1)S(=O)(=O)O (stereo not shown) [JS, 4-piperidin-1-yl-2-butanesulfonic acid]",MS binding IAPP,[1],+ (20-39% binding=(+))
"CN(C)CC(O)CS(=O)(=O)[O-].[Na+] (stereo not shown) [JT, 3-(dimethylamino)-2-hydroxy-1-propane sulfonic acid, sodium salt]",MS binding IAPP,[1],+ (20-39% binding=(+))
"CCNCC(O)CS(=O)(=O)O (stereo not shown) [JU, 3-(ethylamino)-2-hydroxy-1-propanesulfonic acid]",MS binding IAPP,[1],++ (40-74% binding=(++))
CCCCCCCCNCC(O)CS(=O)(=O)O (stereo not shown) [JW],MS binding IAPP,[1],++ (40-74% binding=(++))
"O=S(=O)([O-])CC(O)C[N+]12CCC(CC1)CC2 (stereo not shown) [JX, 1-(3-sulfo-2-hydroxypropyl) quinuclidinium, inner salt]",MS binding IAPP,[1],++ (40-74% binding=(++))
O=S(=O)([O-])CC(O)CNCc1ccccc1.[Na+] (stereo not shown) [JY],MS binding IAPP,[1],+++ (75-100% binding=(+++))
"O=S(=O)(O)CC(O)CNC1CCCc2ccccc21 (stereo not shown) [JZ, 2-hydroxy-3-(1,2,3,4-tetrahydronaphthalen-1-ylamino)propane-1-sulfonic acid]",MS binding IAPP,[1],+++ (75-100% binding=(+++))
"O=S(=O)(O)CC(O)CN1CCCCC1 (stereo not shown) [KA, 2-hydroxy-3-piperidin-1-ylpropane-1-sulfonic acid]",MS binding IAPP,[1],++ (40-74% binding=(++))
"O=S(=O)(O)CC(O)CNC1CC2CCC1C2 (stereo not shown) [KI, 3-(bicyclo[2.2.1]hept-2-ylamino)-2-hydroxy-1-propanesulfonic acid]",MS binding IAPP,[1],+ (20-39% binding=(+))
"CC(C)CCNCC(O)CS(=O)(=O)O (stereo not shown) [KK, 2-hydroxy-3-[(3-methylbutyl)amino]-1-propane sulfonic acid]",MS binding IAPP,[1],+++ (75-100% binding=(+++))
CN(C)CCS(=O)(=O)O [KQ],MS binding IAPP,[1],+ (20-39% binding=(+))
"CC(C)(C)NCCCCS(=O)(=O)O [LD, 4-(tert-butylamino)-1-butanesulfonic acid]",MS binding IAPP,[1],++ (40-74% binding=(++))
"CCNCCCCS(=O)(=O)O [LE, 4-(ethylamino)-1-butanesulfonic acid]",MS binding IAPP,[1],++ (40-74% binding=(++))
O=S(=O)([O-])CCCC[N+]12CCC(CC1)CC2 [LF],MS binding IAPP,[1],+ (20-39% binding=(+))
O=S(=O)(O)CCCCNC1CCCc2ccccc21 (stereo not shown) [LG],MS binding IAPP,[1],++ (40-74% binding=(++))
"CN(C)CCCCS(=O)(=O)O [LH, 4-Dimethylamino-1-butanesulfonic acid]",MS binding IAPP,[1],+ (20-39% binding=(+))
"O=S(=O)(O)CCCCNC12CC3CC(CC(C3)C1)C2 [LI, 4-(adamantyl)amino-1-butanesulfonic acid]",MS binding IAPP,[1],+++ (75-100% binding=(+++))
"CCCCCCCCNCCCCS(=O)(=O)O [LJ, 4-(octylamino)-1-butanesulfonic acid]",MS binding IAPP,[1],+++ (75-100% binding=(+++))
COc1ccc(CNCCCCS(=O)(=O)O)cc1OC [LM],MS binding IAPP,[1],+++ (75-100% binding=(+++))
O=S(=O)(O)CCCCCNC1CC2CCC1C2 (stereo not shown) [LQ],MS binding IAPP,[1],+++ (75-100% binding=(+++))
